Active and inactive are the calls of the source. No cut-off for these calls is given here.
Key:
Format in all cases: cell-based
[1] = molecular target: T1, Solute carrier family 15 member 1 (Homo sapiens, UniProt P46059); test: Inhibitory concentration against [3H]glycylsarcosine uptake in HeLa cells expressing human Intestinal peptide transporter PepT1
T1 sequence (P46059 whole entry): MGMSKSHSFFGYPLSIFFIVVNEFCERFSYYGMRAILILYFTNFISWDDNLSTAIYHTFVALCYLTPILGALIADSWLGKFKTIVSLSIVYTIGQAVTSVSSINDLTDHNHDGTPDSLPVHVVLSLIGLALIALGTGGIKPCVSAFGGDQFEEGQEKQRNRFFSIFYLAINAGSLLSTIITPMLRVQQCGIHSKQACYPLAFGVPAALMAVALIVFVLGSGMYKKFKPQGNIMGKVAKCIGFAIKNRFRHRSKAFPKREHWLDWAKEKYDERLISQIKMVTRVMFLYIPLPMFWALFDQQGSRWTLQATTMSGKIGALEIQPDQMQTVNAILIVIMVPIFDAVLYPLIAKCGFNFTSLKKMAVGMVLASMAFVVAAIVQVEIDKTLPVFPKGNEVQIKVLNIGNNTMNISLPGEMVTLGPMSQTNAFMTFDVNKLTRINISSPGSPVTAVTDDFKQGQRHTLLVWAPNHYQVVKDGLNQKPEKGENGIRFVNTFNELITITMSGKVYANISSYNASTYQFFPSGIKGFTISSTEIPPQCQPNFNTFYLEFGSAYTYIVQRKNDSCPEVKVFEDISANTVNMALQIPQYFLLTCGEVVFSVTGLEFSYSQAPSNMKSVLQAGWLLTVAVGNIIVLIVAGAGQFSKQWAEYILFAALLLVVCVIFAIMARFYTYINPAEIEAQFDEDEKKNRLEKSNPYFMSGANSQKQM

[2] = molecular target: T2, Solute carrier family 15 member 1 (Homo sapiens) (UniProt P46059); test: Relative inhibition of [3H]glycylsarcosine uptake in HeLa cells expressing human Intestinal peptide transporter PepT1 compared to BDCRB
T2 sequence (whole entry): T1 sequence (P46059 whole entry)

[3] = molecular target: T2, Solute carrier family 15 member 1 (Homo sapiens); test: Relative inhibition of [3H]glycylsarcosine uptake in HeLa cells expressing human Intestinal peptide transporter PepT1 compared to BDCRB; na=Not applicable

| Compound | IC50 [1] [µM] | Ratio [2] | Ratio [3] |
| --- | --- | --- | --- |
| CC(C)[C@H](N)C(=O)OCCOCn1cnc2c(=O)[nH]c(N)nc21 [VALACYCLOVIR] | 431 | – | – |
| NCCCC[C@H](N)C(=O)OC[C@H]1OC(n2c(Br)nc3cc(Cl)c(Cl)cc32)[C@H](O)[C@@H]1O (stereo partly drawn) | 477 | 0.9 | – |
| N[C@@H](CC(=O)O)C(=O)OC[C@H]1OC(n2c(Br)nc3cc(Cl)c(Cl)cc32)[C@H](O)[C@@H]1O (stereo partly drawn) | 260 | 1.7 | – |
| CC(C)[C@H](N)C(=O)OC[C@H]1OC(n2c(Br)nc3cc(Cl)c(Cl)cc32)[C@H](O)[C@@H]1O (stereo partly drawn) | 166 | 2.7 | – |
| CC(C)[C@@H](N)C(=O)OC[C@H]1OC(n2c(Br)nc3cc(Cl)c(Cl)cc32)[C@H](O)[C@@H]1O (stereo partly drawn) | 342 | 1.3 | – |
| N[C@@H](Cc1ccc(Cl)cc1)C(=O)OC[C@H]1OC(n2c(Br)nc3cc(Cl)c(Cl)cc32)[C@H](O)[C@@H]1O (stereo partly drawn) | 142 | 3.1 | – |
| CC(C)[C@H](N)C(=O)OCCOCn1cnc2c(=O)nc(N)[nH]c21 | – | – | inactive |
| N[C@@H](Cc1ccccc1)C(=O)OC[C@H]1OC(n2c(Br)nc3cc(Cl)c(Cl)cc32)[C@H](O)[C@@H]1O (stereo partly drawn) | 218 | 2.1 | – |
| CCOc1ccc(C[C@H](N)C(=O)OC[C@H]2OC(n3c(Br)nc4cc(Cl)c(Cl)cc43)[C@H](O)[C@@H]2O)cc1 (stereo partly drawn) | 96 | 4.7 | – |
| OC[C@H]1O[C@H](n2c(Br)nc3cc(Cl)c(Cl)cc32)[C@@H](O)[C@H]1O | 447 | – | inactive |
| CCC(C)[C@H](N)C(=O)OC[C@H]1O[C@@H](n2c(Br)nc3cc(Cl)c(Cl)cc32)[C@H](O)[C@@H]1O (stereo partly drawn) | 121 | 3.7 | – |
| COc1ccc(C[C@H](N)C(=O)OC[C@H]2OC(n3c(Br)nc4cc(Cl)c(Cl)cc43)[C@H](O)[C@@H]2O)cc1 (stereo partly drawn) | 300 | 1.5 | – |
| O=C(OC[C@H]1OC(n2c(Br)nc3cc(Cl)c(Cl)cc32)[C@H](O)[C@@H]1O)[C@@H]1CCCN1 (stereo partly drawn) | 537 | 0.8 | – |
| N[C@H](CC(=O)O)C(=O)OC[C@H]1OC(n2c(Br)nc3cc(Cl)c(Cl)cc32)[C@H](O)[C@@H]1O (stereo partly drawn) | 421 | 1.1 | – |
| N[C@H](Cc1ccccc1)C(=O)OC[C@H]1OC(n2c(Br)nc3cc(Cl)c(Cl)cc32)[C@H](O)[C@@H]1O (stereo partly drawn) | 282 | 1.6 | – |

From ChEMBL document CHEMBL1142674, “Amino acid ester prodrugs of the antiviral agent 2-bromo-5,6-dichloro-1-(beta-D-ribofuranosyl)benzimidazole as potential substrates of hPEPT1 transporter” (J Med Chem, 2005)
